Test results taken from patent publication US11220534B2, “Treatment of neurological diseases” (Lancaster University Business Enterprises Limited, priority 2016, dated 2022).
Where no end group is shown, it is not given here. [ ]: non-standard residue; d: D form. Aib = CC(C)(N)C(=O)O

What was measured:
Assay type in all cases: in vivo
APP/PS1 mice = assay: Y-maze test for working memory in AD mice; settings: FIG. 6, N=8-14 per group
Excerpt: Materials and methods in Example 2 are the same as Example 1 except when stated. Reagents used in Example 2 only include antibodies to p-PI3Kp85, PI3Kp85, p-Akt (ser473), Akt, p-GSK3β ([…]), and GSK3β from Abcam, Inc. Cambridge, UK. The antibody to p-tau (AT8) from Thermo Scientific USA. Mouse Anti-β-actin, Anti-Rabbit IgG, Anti-mouse IgG, CY3-Anti-mouse IgG, RIPA Lysate, BCA Protein Assay Kit, DAPI staining solution and Anti-fluorescence decay agent from Boster (Wuhan, China). Spatial working memory was assessed by recording spontaneous alternation behaviour in a Y-maze. The maze was made of three 30 cm long, 7 cm high, 15 cm wide arms and the arms converged in an equilateral triangular central area. Each mouse was placed at the central triangular area and allowed to move freely through the maze during an 8-min session. The total arm entries and arm order was recorded by Smart 3.0 software system. Alternation was defined as successive entries into the three arms, on overlapping triplet sets. The percent alternation was calculated as the ratio of actual to possible alternations (defined as the total number of arm entries minus 2) multiplied by 100.

[1] = system: PI3K/AKT/GSK3β signalling pathway; assay: Western blotting for hippocampal levels of PI3K/AKT/GSK3β; settings: APP/PS1 mice; FIG. 11; N=6 per group
Excerpt: Materials and methods in Example 2 are the same as Example 1 except when stated. Reagents used in Example 2 only include antibodies to p-PI3Kp85, PI3Kp85, p-Akt (ser473), Akt, p-GSK3β ([…]), and GSK3β from Abcam, Inc. Cambridge, UK. The antibody to p-tau (AT8) from Thermo Scientific USA. Mouse Anti-β-actin, Anti-Rabbit IgG, Anti-mouse IgG, CY3-Anti-mouse IgG, RIPA Lysate, BCA Protein Assay Kit, DAPI staining solution and Anti-fluorescence decay agent from Boster (Wuhan, China). The hippocampi of mouse were dissected and homogenized in tissue protein extraction reagent, and protein concentration was measured using BCA Protein Assay Kit. A total of 50 μg of protein was used from each sample. Sample proteins were separated on 12% SDS-polyacrylamide gels. After that, the proteins were transferred onto PVDF membranes and nonspecific binding was blocked with 5% BSA. A primary antibody was used to incubate the membranes overnight at 4° C., followed by a secondary antibody for 2 h. The optical density of the target strip (p-PI3K, t-PI3K, p-AKT, t-AKT, p-GSK3β and t-GSK3β) was analyzed by using a gel image processing system. Data were analysed using a one-way ANOVA with post-hoc Bonferroni tests. The results are illustrated in FIGS. 5 to 11.

C57BL/6 mice given MPTP = assay: Immunohistochemistry for TH in the substantia nigra pars compacta, MPTP Parkinson mouse model; settings: 10 nmol/kg i.p. once daily for 2 weeks, FIG. 4, N=6 per group
Excerpt: A standard model to induce Parkinson like symptoms in mice is the injection of the chemical (MPTP) (Li et al., 2009). This chemical impairs or kills neurons in the brain that produce dopamine. The mice develop motor impairments, and the dopaminergic neurons in the brain are reduced in numbers and function. The enzyme tyrosine hydroxylase (TH) is required to synthesise dopamine. A loss of TH signifies a loss of dopamine production (Harkavyi et al., 2008).
Adult male C57BL/6 mice were given the dopaminergic toxin MPTP (20 mg/kg in 0.1 mL of PBS i.p. at 2-h intervals of 4 doses MPTP; Sigma) or vehicle (PBS) for one day. […]
Immunohistochemistry for TH in the Substantia Nigra Pars Compacta and the Striatum Six animals per group were analysed for expression of tyrosine hydroxylase (TH), a marker for dopamine production. Coronal brain sections (20 μm) from striatum (bregma […]) and SNpc (bregma […]) were analysed by immunohistochemistry using antibodies recognising TH.
Sections were cut on a cryostat and postfixed in 4% paraformaldehyde, washed in PBS, treated with 0.3% H2O2 in methanol for 20 min, and washed again. […] For each animal, three tissue sections from one level of striatum were stained and analysed for TH-positive fibre innervation. […] Two tissue sections from each level were quantified by immunohistochemistry. […]

YXEGTFTSDYSIYLDKQAAXEFVNWLLAGGPSSGAPPPSKRRQRRKKRGY-NH2 (Y[Aib]EGTFTSDYSIYLDKQAA[Aib]EFVNWLLAGGPSSGAPPPSKRRQRRKKRGY-NH2) [DA5, No. 12; X=aminoisobutyric acid]
spatial working memory (percent alternation, Y-maze) (APP/PS1 mice): improved spatial working memory
activation of GSK3β / PI3K/AKT signalling (western blot, hippocampus) [1]: prevents excessive activation of GSKβ by upregulating P13/AKT signalling
MPTP-induced reduction of TH in the substantia nigra, pars compacta (protection of dopaminergic neurons) (C57BL/6 mice given MPTP): protected dopaminergic neurons at a greater rate than the single GIP and GLP-1 analogues
